Results from the supplement of paper PMC10307832.

Key:
Assay in all cases: relative viability (nuclei count vs DMSO), 5 days (fraction); higher = more cells survive
Fedratinib + Foretinib = compound: Cc1cnc(Nc2ccc(OCCN3CCCC3)cc2)nc1Nc1cccc(S(=O)(=O)NC(C)(C)C)c1 [Fedratinib] + COc1cc2c(Oc3ccc(NC(=O)C4(C(=O)Nc5ccc(F)cc5)CC4)cc3F)ccnc2cc1OCCCN1CCOCC1 [Foretinib] (partner 0.25 µM)
How it was run: (§1)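 Each reported value is a median over duplicate plates. It expresses relative viability: treated-well nuclei count divided by vehicle-well nuclei count. Lung cancer cell lines in 1536-well plates were dosed by pin tool a day after seeding, alone with one drug or with a fixed anchor-drug dose plus five library-drug doses (not always all listed) in √10 steps, and nuclei were counted after 5 days.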

Fedratinib + Pictilisib = compound: Cc1cnc(Nc2ccc(OCCN3CCCC3)cc2)nc1Nc1cccc(S(=O)(=O)NC(C)(C)C)c1 [Fedratinib] + CS(=O)(=O)N1CCN(Cc2cc3nc(-c4cccc5[nH]ncc45)nc(N4CCOCC4)c3s2)CC1 [Pictilisib] (partner 1 µM)
How it was run: as §1

Fedratinib + Pemetrexed = compound: Cc1cnc(Nc2ccc(OCCN3CCCC3)cc2)nc1Nc1cccc(S(=O)(=O)NC(C)(C)C)c1 [Fedratinib] + Nc1nc2[nH]cc(CCc3ccc(C(=O)N[C@@H](CCC(=O)O)C(=O)O)cc3)c2c(=O)[nH]1 [Pemetrexed] (partner 0.2 µM)
How it was run: as §1

GW-2580 + Pemetrexed = compound: COC1=CC=C(C=C1)COC2=C(C=C(C=C2)CC3=CN=C(N=C3N)N)OC [GW-2580] + Nc1nc2[nH]cc(CCc3ccc(C(=O)N[C@@H](CCC(=O)O)C(=O)O)cc3)c2c(=O)[nH]1 [Pemetrexed] (partner 0.2 µM)
How it was run: as §1

GW-2580 + Crizotinib = compound: COC1=CC=C(C=C1)COC2=C(C=C(C=C2)CC3=CN=C(N=C3N)N)OC [GW-2580] + C[C@@H](Oc1cc(-c2cnn(C3CCNCC3)c2)cnc1N)c1c(Cl)ccc(F)c1Cl [Crizotinib] (partner 1 µM)
How it was run: as §1

Fedratinib + Trametinib = compound: Cc1cnc(Nc2ccc(OCCN3CCCC3)cc2)nc1Nc1cccc(S(=O)(=O)NC(C)(C)C)c1 [Fedratinib] + CC(=O)Nc1cccc(-n2c(=O)n(C3CC3)c(=O)c3c(Nc4ccc(I)cc4F)n(C)c(=O)c(C)c32)c1 [Trametinib] (partner 0.02 µM)
How it was run: as §1

Cell Line | relative viability (Fedratinib + Foretinib; first compound 0.1 µM) | relative viability (Fedratinib + Foretinib; first compound 0.3162 µM) | relative viability (Fedratinib + Foretinib; first compound 1 µM) | relative viability (Fedratinib + Pictilisib; first compound 0.1 µM) | relative viability (Fedratinib + Pictilisib; first compound 0.3162 µM) | relative viability (Fedratinib + Pictilisib; first compound 1 µM) | relative viability (Fedratinib + Pemetrexed; first compound 0.1 µM) | relative viability (Fedratinib + Pemetrexed; first compound 0.3162 µM) | relative viability (Fedratinib + Pemetrexed; first compound 1 µM) | relative viability (GW-2580 + Pemetrexed; first compound 0.08 µM) | relative viability (GW-2580 + Pemetrexed; first compound 0.8 µM) | relative viability (GW-2580 + Pemetrexed; first compound 2.53 µM) | relative viability (GW-2580 + Pemetrexed; first compound 8 µM) | relative viability (GW-2580 + Crizotinib; first compound 0.08 µM) | relative viability (GW-2580 + Crizotinib; first compound 2.53 µM) | relative viability (GW-2580 + Crizotinib; first compound 8 µM) | relative viability (Fedratinib + Trametinib; first compound 0.1 µM) | relative viability (Fedratinib + Trametinib; first compound 0.3162 µM) | relative viability (Fedratinib + Trametinib; first compound 1 µM) | relative viability (GW-2580 + Crizotinib; first compound 0.8 µM)
CAL-12T | 0.934 | 0.992 | 1.08 | 0.454 | 0.615 | 0.162 | 1.02 | 1.2 | 1.31 | 1.32 | 1.53 | 1.24 | 1.13 | 0.632 | 0.59 | 0.577 | 0.4 | 0.332 | 0.304 | 
RERF-LC-KJ | 0.883 | 0.904 | 0.864 | 0.431 | 0.545 | 0.462 | 0.454 | 0.463 | 0.502 | 0.491 | 0.44 | 0.504 | 0.523 | 0.818 | 0.778 | 0.76 | 0.787 | 0.813 | 0.858 | 0.915
NCI-H1650 |  | 1.1 | 0.885 | 0.355 | 0.571 | 0.155 | 0.292 | 0.312 | 0.37 | 0.468 | 0.391 | 0.418 | 0.371 | 1.06 | 1.36 | 0.919 | 0.534 | 0.545 | 0.642 | 1.29
BEN | 0.685 | 0.683 | 0.472 | 0.477 | 0.575 | 0.498 | 0.653 | 0.755 | 0.669 | 1.91 | 0.762 | 0.615 | 0.702 | 0.937 | 0.785 | 0.958 | 0.846 | 0.945 | 0.926 | 1
EMC-BAC-2 | 1 | 1.01 | 1 | 0.499 | 0.575 | 0.538 | 0.425 | 0.481 | 0.39 | 0.503 | 0.43 |  | 0.502 | 0.779 | 0.75 | 0.803 | 0.931 | 0.939 | 0.978 | 0.771
LU99A | 0.717 | 0.858 | 0.644 | 0.325 | 0.369 | 0.217 | 0.181 | 0.174 | 0.197 | 0.246 | 0.176 | 0.193 | 0.17 | 0.662 | 0.524 | 0.535 | 0.577 | 0.593 | 0.477 | 0.633
ABC-1 | 1.03 | 1.22 | 0.96 | 0.694 | 0.809 | 0.318 |  |  |  |  |  |  |  | 1.1 | 0.901 | 0.783 |  |  |  | 1.3
NCI-H1299 | 1.06 | 1.09 | 1.07 | 0.629 | 0.688 | 0.529 |  |  |  |  |  |  |  | 0.974 | 0.972 | 0.892 |  |  |  | 0.984
EBC-1 | 0.112 | 0.103 | 0.1 | 0.27 | 0.33 | 0.251 |  |  |  |  |  |  |  | 0.205 | 0.19 | 0.164 |  |  |  | 0.163
NCI-H1648 |  |  |  |  |  |  | 0.598 | 0.675 | 0.328 | 0.778 |  | 0.609 | 0.611 |  |  |  | 0.383 | 0.441 | 0.43 | 
NCI-H1792 |  |  |  | 0.257 | 0.289 | 0.227 | 0.784 | 0.67 | 0.597 | 0.843 | 0.773 | 0.688 | 0.644 | 1.03 | 0.733 | 1.13 | 0.365 | 0.364 | 0.449 | 1.13
HCC-44 |  |  |  | 0.407 | 0.623 | 0.465 | 0.646 | 0.638 | 0.68 | 0.727 | 0.638 | 0.649 | 0.666 | 0.899 | 0.751 | 0.839 | 1.15 | 1.01 | 1.11 | 0.843
NCI-H1793 | 0.506 | 0.765 | 0.45 | 0.34 | 0.305 | 0.306 | 0.81 | 0.847 | 0.724 | 0.982 | 1.08 | 0.649 | 0.844 |  |  |  | 0.493 | 0.399 | 0.416 | 
A549 | 0.896 | 0.938 | 0.892 | 0.531 | 0.465 | 0.434 |  |  |  |  |  |  |  | 0.722 | 0.737 | 0.543 |  |  |  | 0.878
NCI-H1563 | 0.894 | 0.927 | 0.874 | 0.608 | 0.711 | 0.712 | 0.737 | 0.624 | 0.824 | 0.763 | 0.883 | 0.674 | 0.792 | 0.836 | 0.875 | 0.77 |  |  |  | 0.936
NCI-H1395 | 0.926 | 0.956 | 0.959 | 0.515 | 0.642 | 0.469 | 0.728 | 0.952 | 0.665 | 0.9 | 0.986 | 0.863 | 0.88 |  |  |  | 0.979 | 0.962 | 0.814 | 
NCI-H522 |  |  |  |  |  |  | 0.767 | 0.951 | 0.902 | 1.11 | 0.97 | 0.967 | 0.994 |  |  |  | 0.675 | 0.62 | 0.681 | 
IA-LM | 1.15 | 1.23 | 1.12 | 0.26 | 0.288 | 0.199 |  |  |  |  |  |  |  | 0.962 | 1.02 | 0.836 |  |  |  | 0.732
NCI-H1703 | 0.317 | 0.296 | 0.324 | 0.244 | 0.233 | 0.204 |  |  |  |  |  |  |  | 0.752 | 0.714 | 0.647 |  |  |  | 0.631
NCI-H727 | 0.835 | 0.808 | 0.779 | 0.378 | 0.317 | 0.164 |  |  |  |  |  |  |  | 0.85 | 0.79 | 0.5 | 0.38 | 0.426 | 0.392 | 0.819
SW 900 | 0.868 | 1.05 | 0.804 |  |  |  | 0.466 | 0.525 | 0.444 | 0.509 | 0.511 | 0.495 | 0.547 |  |  |  | 0.748 | 0.802 | 0.798 | 
